Laboratory results from patent publication US6284910A, “Farnesyl pyrophosphate analogs” (University of Kentucky Research Foundation, priority 1999, dated 2001).
“Also recorded” adds a separate entry of the source.

Tests used:
FTase = FTase (Rattus norvegicus, UniProt Q02293+Q04631); assay: FTase-catalyzed transfer of labeled FPP analogs to p21^H-ras (substrate assay); type: biochemical; parameters: H-Ras is only the protein substrate; conditions: for transfer to p21^H-ras by FTase, in words: in vitro
Experimental: FIG. 4. Transfer of Anilinogeranyl from [^3 H]AGPP to p21^Ha-ras by Farnesyltransferase. (A) Each reaction contained 1 μM [^3 H]AGPP (37,400 dpm/pmol) and 10 ng of recombinant FTase in the absence (triangles) or presence (circles) of 5 μM p21^Ha-ras Duplicate samples were incubated for the indicated times at 37° C., and ethanol-HCl precipitated radioactivity was measures as described under "Experimental Procedures". […] The gel was treated with Amplify solution (Amersham), dried, and exposed to Kodak X-OMAT AR film for 2 days at -70° C. The migration of molecular weight markers placed in a adjacent lane is shown. (B) The AGPP substrate saturation curve for FTase was determined by varying the amount of [^3 H]AGPP in the standard reaction described above. Assays were carried out in duplicate for 30 min at 37° C., and the ethanol-HCl precipitable radioactivity measured. The data is representative of three independent experiments.
FIG. 5. […] Farnesyltransferase (10 ng) was incubated in a final volume of 25 μl in the presence of 1.0 μM [^3 H]AGPP or [^3 H]FPP and 5 μM wild-type p21^Ha-ras. After incubation for 30 min at 37° C., the amount of [^3 H]prenyl transferred to p21^Ha-ras was determined as described under "Experimental Procedures". Each value is the average of duplicate incubations and is representative of five separate experiments.
(§1) Assay for Farnesyltransferase Activity--Farnesyltransferase activity was assayed by measuring the amount of [^3 H]farnesyl or [^3 H]anilinogeranyl transferred from [^3 H]FPP or [^3 H]AGPP to recombinant p21^H-ras, as described previously (31). Unless otherwise stated, each reaction mixture contained the following components in a final volume of 25 μl: 50 mM Tris (pH 7.4), 20 mM KCl, 0.2% octyl β-glucopyranoside, 1 mM dithiothreitol, 10-20 ng recombinant FTase, 5 μM p21^Ha-ras, 3 mM MgCl2, 50 μM ZnCl2, and 0.6 μM [^3 H]FPP (33,000 dpm/pmol; American Radiochemical Co.) or 0.1-5 μM [^3 H]AGPP (37,400 dpm/pmol). Following incubation for the indicated times at 37° C., the amount of [^3 H]prenyl transferred was measured by ethanol-HCl precipitation and filtration on glass fiber filters with modification as previously described (19). A blank value was determined in parallel incubation mixtures containing no enzyme. This blank value was subtracted from each reaction before calculating pmol [^3 H]prenyl transferred.
The observed inhibition kinetics could be a manifestation of the ability of AGPP to act as an alternative substrate for FTase. To evaluate the potential of AGPP to serve as a substrate of FTase, [^3 H]-AGPP was prepared by a similar route as described above, incorporating tritium with a specific activity of 17 Ci/mmol (synthesis to be reported elsewhere). […] The incorporated radioactivity was detected as a band of the expected molecular weight of farnesylated p21^H-ras on SDS-polyacrylamide gels (FIG. 4A, inset). […] The concentration of [^3 H]AGPP that gave half-maximal reaction velocity was approximately 0.5 μM (FIG. 4B).
FIG. 5 depicts transfer of unnatural anilinogeranyl lipid from [^3 H]AGPP and transfer of farnesyl lipid from [^3 H]FPP to H-Ras by FTase. Farnesyltransferase (10 ng) was incubated in a final volume of 25 μl in the presence of 1.0 μM [^3 H]AGPP or [^3 H]FPP and 5 μM wild-type H-Ras. After incubation for 30 min. at 37° C., the amount of [^3 H]prenyl transferred to H-Ras was determined by ethanol-HCl precipitation and scintillation counting. Each value is the average of duplicate incubations and is representative of five separate experiments.

[1] = target: T1, recombinant rat brain FTase (Rattus norvegicus, UniProt Q02293+Q04631); assay: Inhibition of FTase-catalyzed transfer of [^3 H]farnesyl from [^3 H]FPP to H-Ras; type: biochemical
T1 construct: 6xHis (N); made in house; host or cells: Sf9 insect cells (baculovirus)
Experimental: FIG. 2. Differential Inhibition of Farnesyltransferase and CAAX Geranylgeranyltransferase by AGPP. The assay mixtures contained (in a final volume of 25 μl) various components as described in "Experimental Procedures". After incubation for 15 min at 37° C., the amount of [^3 H]prenyl group transferred to the appropriate protein substrate [H-Ras (CVLS) for FTase and H-Ras (CVLL) for CAAX GGTase] was measured by precipitation with ethanol-HCl. The assays contained 10 ng recombinant rat FTase, 5 μM H-Ras, and 0.6 μM [^3 H]FPP (33,000 dpm/pmol) or 100 ng recombinant rat CAAX GGTase, 5 μM H-Ras CVLL, and 1 μM [^3 H]GGPP (33,000 dpm/pmol) and the indicated concentration of unlabeled AGPP. The 100% of control values were 1.1 and 5.5 pmol of [^3 H]farnesyl or [^3 H]geranylgeranyl transferred per tube. Each value is the average of duplicate incubations and is representative of two separate experiments.
FIG. 3. Inhibition of Farnesyltransferase by AGPP and I-AGPP. The enzymatic activity was measured in the presence of the various concentrations of either AGPP or I-AGPP as described in […]. The 100% control values were 1.9 and 2 pmol. Each value is the average of duplicate incubations and is representative of three separate experiments.
as §1
Inhibition of Farnesyltransferase by AGPP--AGPP was tested for its ability to inhibit recombinant rat brain FTase activity in vitro. AGPP inhibited FTase in a concentration dependent manner with an IC50 value of 0.6 μM (FIG. 2).
Kinetic analyses were carried out to investigate the mechanism of FTase inhibition by AGPP. […] The same Km value was observed when the Lineweaver-Burke plot was analyzed under different Ras and AGPP concentrations in the presence of a constant concentration of FPP. […] AGPP inhibition is reversible, since transfer of [^3 H]-FPP by FTase to Ras was restored by isolating the farnesyltransferase by gel filtration chromatography after preincubation in the presence of 50 μM AGPP (data not shown).
The assays contained 10 ng recombinant rat FTase, 5 μM H-Ras, and 0.6 μM [^3 H]FPP (33,000 dpm/pmol) or 100 ng recombinant rat CAAX GGTase, 5 μM H-Ras CVLL, and 1 μM [^3 H]GGPP (33,000 dpm/pmol) and the indicated concentration of unlabeled AGPP. The 100% of control values were 1.1 and 5.5 pmol of [^3 H]farnesyl or [^3 H]geranylgeranyl transferred per tube.

C/C(=C\COP(=O)(O)OP(=O)(O)O)CC/C=C(\C)CNc1ccccc1 [AGPP, (E,E)-8-Aniline-3,7-dimethyl-2,6-octadiene pyrophosphate]
transfer to p21^H-ras by FTase, in words (FTase; 37° C.): transferred efficiently | transfer to p21^H-ras by FTase, in words (FTase; 37° C., listed as [^3 H]-AGPP): kinetics of transfer are identical to those of FPP | transfer to p21^H-ras by FTase, in words (FTase; 37° C., listed as [^3 H]AGPP): time dependent fashion; also recorded: transferred appropriately to p21^H-Ras by FTase | transfer to p21^H-ras lacking the CVLS motif (FTase; recombinant p21^H-ras with CVLS removed): eliminated the incorporation of tritium into the protein | concentration that gave half-maximal reaction velocity (FTase; transfer to p21^H-ras, 37° C., 30 min): approximately 0.5 μM | IC50 ([1]; 0.6 μM [^3 H]FPP, 5 μM H-Ras, 37° C., 15 min): 600 nM | mechanism of FTase inhibition with respect to Ha-Ras protein ([1]; constant FPP, various Ras): noncompetitive inhibitor with respect to Ha-Ras protein; also recorded: did not apparently affect the Km value for the substrate protein Ha-Ras | mechanism of FTase inhibition with respect to FPP ([1]; double reciprocal plots, various [^3 H]FPP, constant Ras): competitive inhibitor of FTase with respect to FPP; also recorded: changed the Km value for FPP but does not alter the Vmax; also recorded: potent competitive inhibitor | reversibility of FTase inhibition ([1]; gel filtration after preincubation with 50 μM AGPP): reversible | inhibition of FTase, in words ([1]; in vitro, unlabeled compound): competed at essentially the same concentrations
